The values that follow come from PMC12640667 (Chemmedchem, 2025).

The target of data set [1] is T1, Hb (Homo sapiens, UniProt P69905). The experiment in a line: Oxygen equilibrium curve. The following applies: 2 mM; SS blood lysates; relative to untreated controls. In kind it is biochemical.
Data set [2] concerns the target T1, Hb. The experiment in a line: Hb modification. Format: binding. The following applies: 2 mM; SS blood lysates; percentage fraction of total Hb area.
Data set [3] addresses T1, Hb. In words: Time-dependent Hb oxygen equilibrium. The following applies: at 3 h; 2 mM; normal whole blood, hematocrit 20%, 37 °C. In kind it is biochemical.
For data set [4], the system named is human cytochrome P450 (CYP) enzymes. In words: CYP inhibition panel of seven CYP enzymes, pooled human liver microsomes. Format: in vitro ADME. The following applies: CYP1A2, CYP2C8, CYP2C9, CYP2C19, CYP2D6, CYP3A4, CYP2B6; 0.1–100 µM. (Microsomes from liver hold many membrane-bound enzymes, among them those of drug oxidation.)
The conditions of data set [5]: cited from earlier work.
The conditions of data set [6]: cited from earlier work. This is another data set of the same source.

Values joined by “and” are separate entries in the source; they are usually repeats but may differ in a detail not shown here. Equal entries are not always repeated. Where two headings read alike, the source gives them in different places.

Take `O=Cc1ccc(CO)o1` [5‐HMF, 5‐hydroxymethylfurfural]: the “% P50 shift” value in data set [1] was 27% and 27.2 ± 4.9%. The “% Hb modification” value in data set [2] stood at 33.8 ± 11.7%. Also, the P50 shift in data set [3] is given as 35%. Moreover, the “inhibition of liver CYP isozymes” value in data set [4] is given as “no inhibition”. Besides, the “half‐life” value in data set [5] is given as less than 2.2 h. Also, the aq. solubility result in data set [6] (at 25 °C, ref PubChem CID 237,332) is “≈ 400 mg mL^−1”.

`CC(C)n1nccc1-c1ncccc1COc1cccc(O)c1C=O` [Voxelotor]: the “half‐life” value in data set [5] is given as greater than 50 h. Further, the aq. solubility in data set [6] (in water at 25 °C) is less than 100 µg/mL.
